Laboratory results taken from patent US20180258381A1, “BIO-LAMINA BIOREACTORS AND METHODS OF MAKING AND USING THE SAME” (Oregon State University, priority 2015, published 2018).

Tests used:
MDH = MDH activity reactivity assay (methanol SOUR), inhibitor trials; format: cell-based, M. trichosporium OB3b; conditions: for selective inhibition of MDH activity versus MMO: salts tested on MMO and MDH activity
Description: The procedure for measuring methanol dehydrogenase (MDH) activity by measuring the specific oxygen uptake rate (SOUR) has been tested on M. trichosporium OB3b cultures grown both in batch and in the chemostat. M. trichosporium OB3b cells were harvested using centrifugation. The supernatant was poured off and the cells were re-suspended in fresh media lacking a carbon source. Phosphate buffer solution was added to a sample chamber in which dissolved oxygen (DO) was measure with a DO probe. When the DO of the solution stabilized, the re-suspended cells were added to the sample chamber to measure baseline oxygen uptake by the cells without a carbon food source present. Methanol was then added to test for MDH activity. The difference in the oxygen uptake rates illustrates the MDH activity of the culture.
(§1) Metabolic activity test methods have been developed to monitor specific activities in M. trichosporium OB3b cultures. A naphthalene oxidation assay was used to determine if sMMO is being expressed. An ethylene to ethylene oxide reaction assay and a methane oxidation assay was used to quantify MMO activity, and a methanol oxidation assay was used to estimate MDH activity. Concurrent batch metabolic tests can be conducted to investigate methanol inhibition of methane oxidation, cyclopropane to cyclopropanol conversion and concurrent/subsequent cyclopropanol inhibition of MDH activity, the effect of cyclopropanol inhibition on growth yield, and the effects of high oxygen concentration.
(§2) The effect of salts NaCl, NH4Cl and CaCl2 on MMO and MDH activity was evaluated using the reactivity assays described above.

sMMO = biological target: T1, sMMO (Methylosinus trichosporium, UniProt P27353); test: sMMO activity reactivity assay, inhibitor trials; format: cell-based, M. trichosporium OB3b
T1 construct: endogenous in cells; host or cells: M. trichosporium OB3b whole cells, grown without copper (chemostat or batch)
T1 sequence (P27353 1-526): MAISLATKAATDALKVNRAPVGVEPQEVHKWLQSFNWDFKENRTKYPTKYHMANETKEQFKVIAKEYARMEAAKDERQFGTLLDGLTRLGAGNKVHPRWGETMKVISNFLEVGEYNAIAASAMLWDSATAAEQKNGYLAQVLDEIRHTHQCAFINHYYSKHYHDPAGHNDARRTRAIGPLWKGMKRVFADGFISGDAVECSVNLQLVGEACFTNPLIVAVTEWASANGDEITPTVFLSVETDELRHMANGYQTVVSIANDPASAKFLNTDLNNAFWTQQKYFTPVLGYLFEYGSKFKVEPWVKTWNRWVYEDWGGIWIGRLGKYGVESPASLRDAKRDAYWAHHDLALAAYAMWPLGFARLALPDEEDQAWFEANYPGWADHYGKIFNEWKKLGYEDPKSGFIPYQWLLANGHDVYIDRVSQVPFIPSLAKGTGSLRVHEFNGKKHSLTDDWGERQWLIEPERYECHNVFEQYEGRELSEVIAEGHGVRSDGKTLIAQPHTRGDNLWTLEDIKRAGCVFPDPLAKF
T1 sequence (P27354 1-394 partner): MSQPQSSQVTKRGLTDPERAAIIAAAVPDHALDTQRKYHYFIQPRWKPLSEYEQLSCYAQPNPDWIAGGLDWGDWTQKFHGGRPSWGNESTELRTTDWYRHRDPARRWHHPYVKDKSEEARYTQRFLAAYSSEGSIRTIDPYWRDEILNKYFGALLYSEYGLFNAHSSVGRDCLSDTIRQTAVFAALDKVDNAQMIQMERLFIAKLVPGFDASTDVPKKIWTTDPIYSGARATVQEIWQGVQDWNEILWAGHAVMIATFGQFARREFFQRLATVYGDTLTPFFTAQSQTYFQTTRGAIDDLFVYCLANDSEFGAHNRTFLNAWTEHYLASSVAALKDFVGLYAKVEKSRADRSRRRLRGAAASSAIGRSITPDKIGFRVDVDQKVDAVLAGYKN
T1 sequence (P27355 1-169 partner): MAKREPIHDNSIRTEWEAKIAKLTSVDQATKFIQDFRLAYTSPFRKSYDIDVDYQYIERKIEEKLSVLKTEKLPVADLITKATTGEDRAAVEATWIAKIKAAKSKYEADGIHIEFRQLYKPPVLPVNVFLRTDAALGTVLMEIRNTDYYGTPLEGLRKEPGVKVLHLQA
Description: M. trichosporium OB3b cultures were grown under plus copper (pMMO expressed) or minus copper (sMMO expressed) conditions using chemostat or batch culture conditions. Aliquots of culture (˜100 ml) were harvested by centrifugation, and concentrated 50-fold in fresh media. Pelleting cells in this manner ensured that all residual methane was eliminated, increased ease of measuring protein, and made activity assays as brief as possible. Assays were performed in 30 ml crimp cap reaction vials with 4 ml of media (either +Cu or −Cu) with 10 mM sodium formate. To initiate assays, 100 µl of the 50× cell suspension was added to reaction vials with a plastic syringe. Short descriptions of activity assays follow.
Due to the relative insolubility of methane, large volumes should be added to reaction vials to achieve concentrations in the aqueous phase (Cw) above the concentration of methane where the velocity of methane consumption (V) is equal to 0.5Vmax for minus copper grown M. trichosporium OB3b cultures. These large methane additions make direct measurement of methane consumption in short-term assays unlikely, therefore the accumulation of ethylene oxide (ETO) upon the oxidation of ethylene (ETH) was used as a surrogate measurement. Reaction vials were prepared as described above and 5 ml of ETH added as an overpressure. The appearance of ETO was monitored by gas chromatography evaluation of Cw over the course of 30 minutes (FIG. 39A). Killed cells (boiled) served as a negative control. pMMO is a copper enzyme and can be inhibited by allylthiourea (ATU), while sMMO (an iron enzyme) is insensitive to inhibition by ATU. The ETH to ETO assay described above was repeated with 10 μM ATU to discriminate between sMMO and pMMO activity.
as §1, with “concentration. Once stable operation and baseline metabolic monitoring in the chemostat have been achieved, inhibitor can be added to evaluate chemostat operation under methanol-producing conditions.” for “concentration.”
MMO activity has been measured via both methane (CH4) consumption and ethylene oxide (ETO) production upon oxidation of the non-growth substrate ethylene (ETH, Table 4). While ETO production matches methane consumption for pMMO, ETH is not as good a substrate for sMMO as methane. Nevertheless, the ETO accumulation assay is quick (<30 min) and can be used to screen for activity before starting a larger experiment.
as §2

Structure (SMILES): Cl.N [NH4Cl]
- selective inhibition of MDH activity versus MMO (MDH): None of the salts were effective

Structure (SMILES): [Cl-].[Na+] [NaCl]
- selective inhibition of MDH activity versus MMO (MDH): None of the salts were effective

Structure (SMILES): [Ca+2].[Cl-].[Cl-] [CaCl2]
- Fraction of Activity Remaining, sMMO (sMMO; CaCl2 10 mmol): 0.41
- Fraction of Activity Remaining, sMMO (sMMO; CaCl2 20 mmol): 0.29
- Fraction of Activity Remaining, sMMO (sMMO; CaCl2 40 mmol): 0.20
- Fraction of Activity Remaining, MDH (MDH; CaCl2 10 mmol): 0.71
- Fraction of Activity Remaining, MDH (MDH; CaCl2 40 mmol): 0.45
- Fraction of Activity Remaining, MDH (MDH; CaCl2 66 mmol): 0.35
- selective inhibition of MDH activity versus MMO (MDH): None of the salts were effective
